Measurements from article PMC4949465, “Comparative chemical array screening for p38γ/δ MAPK inhibitors using a single gatekeeper residue difference between p38α/β and p38γ/δ” (Scientific Reports, 2016).
Where “and” joins values, the source holds several entries; their conditions need not be identical. Equal values may be shown once.

Key:
[1] = target: T1, p38γ (Homo sapiens, UniProt P53778); experiment: KinaseProfiler quantitative kinase assay (Eurofins), MBP substrate; type: biochemical; design: purchased Eurofins Pharma Discovery Services UK Limited (KinaseProfiler service); conditions: ATP at Km 15 µM, means of duplicate determinations
T1 sequence (P53778 1-367): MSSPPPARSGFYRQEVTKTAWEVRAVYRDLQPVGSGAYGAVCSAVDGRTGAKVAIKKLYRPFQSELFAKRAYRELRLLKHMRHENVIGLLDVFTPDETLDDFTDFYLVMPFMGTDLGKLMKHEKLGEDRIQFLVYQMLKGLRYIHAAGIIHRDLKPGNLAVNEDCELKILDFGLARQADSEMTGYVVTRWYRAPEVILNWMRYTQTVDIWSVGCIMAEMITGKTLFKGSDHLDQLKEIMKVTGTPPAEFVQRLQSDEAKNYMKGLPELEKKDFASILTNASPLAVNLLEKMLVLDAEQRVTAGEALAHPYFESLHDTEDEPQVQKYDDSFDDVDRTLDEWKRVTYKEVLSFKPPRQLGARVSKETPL
Description: (§1) SU-002 derivatives (SU-001, 003, 004, 005, and 006, shown in Fig. 3A) were synthesized and the inhibitory activities of SU-002 and its derivatives against p38αT106M were tested. […] We then conducted quantitative kinase assay analyses including IC50 using the KinaseProfiler service of Eurofins Pharma Discovery Services. MBP was used as a substrate for all tested p38 isoforms: p38α, p38αT106M, p38γ, and p38δ. All p38 isoforms used were activated using a constitutively active mutant of MKK6. […] Next, we examined their effects in HeLa cells. […] To verify the specificity of SU-005 for p38δ, a FLAG-tagged p38δM107T was constructed and tested in a similar manner.
(§2) Quantitative kinase assay analyses including IC50 were conducted using the KinaseProfiler service of Eurofins Pharma Discovery Services UK Limited.

[2] = target: T2, p38αT106M (Homo sapiens, UniProt Q16539, T106M); experiment: as above; type: biochemical; conditions: ATP at Km 70 µM, means of duplicate determinations
T2 construct: purchased Eurofins Pharma Discovery Services UK Limited (KinaseProfiler service)
Description: as §1, §2

[3] = target: T3, p38δ (Homo sapiens, UniProt O15264); experiment: as above; type: biochemical; conditions: ATP at Km 15 µM, means of duplicate determinations
T3 construct: purchased Eurofins Pharma Discovery Services UK Limited (KinaseProfiler service)
T3 sequence (O15264 1-365): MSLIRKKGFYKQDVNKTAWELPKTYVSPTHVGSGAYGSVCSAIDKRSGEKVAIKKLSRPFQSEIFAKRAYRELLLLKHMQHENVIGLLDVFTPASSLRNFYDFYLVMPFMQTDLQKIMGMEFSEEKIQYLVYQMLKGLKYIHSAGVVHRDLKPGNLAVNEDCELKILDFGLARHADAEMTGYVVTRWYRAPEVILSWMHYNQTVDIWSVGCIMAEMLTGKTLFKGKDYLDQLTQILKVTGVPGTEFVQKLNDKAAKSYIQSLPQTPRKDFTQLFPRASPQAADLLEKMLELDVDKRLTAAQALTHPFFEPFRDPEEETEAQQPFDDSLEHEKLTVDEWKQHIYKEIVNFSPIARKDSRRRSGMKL
Description: as §1, §2

[4] = target: T4, p38α (Homo sapiens, UniProt Q16539); experiment: as above; type: biochemical; conditions: ATP at Km 90 µM, means of duplicate determinations
T4 construct: purchased Eurofins Pharma Discovery Services UK Limited (KinaseProfiler service)
Description: as §1, §2

[5] = target: T5, GST-p38αT106M (Homo sapiens, UniProt Q16539, T106M); experiment: In vitro kinase assay, GST-ATF2 substrate, [γ-32P]ATP; type: biochemical
T5 construct: made in house
Description: (§3) Bacterially produced GST-p38α and GST-p38αT106M were used for the kinase assay. GST-ATF2 (1–109)[34] was used as a substrate. The assay conditions used have been previously described. […] DMSO (1 μL) was used instead of compound as a negative control. Then, the mixture was combined with the solution containing 1 μg substrate protein, 185 kBq [γ-^32P]ATP and 20 μΜ ATP to generate a 15 μL reaction mixture and incubated for 30 min at 30 °C. The reaction was terminated by adding 7.5 μL of 3 × SDS sample buffer and boiled for 5 min. Phosphorylated substrate protein was then separated by 12.5% SDS- polyacrylamide gel electrophoresis and visualized by autoradiography.

[6] = target: T6, endogenous p38γ (Homo sapiens, UniProt P53778); experiment: Endogenous p38γ auto-phosphorylation in HEK293T cells, western blot; type: cell-based; conditions: 10 μM, 0.2 M NaCl stimulation, Fig. 6
T6 construct: endogenous in cells; host or cells: HEK293T
T6 sequence (P53778 1-367): T1 sequence (P53778 1-367)
Description: For the analyses with HEK293T cells, 1 × 10^5 cells were seeded into each well of a 48-well plate. The next day, 10 μM SU derivative or SB202190 was added 1 h prior to stimulation of the cells with 0.2 M NaCl. The cells were further grown in DMEM supplemented with 10% FBS for 20 min. Then, the cells were rinsed once with PBS and harvested in 1 × SDS sample buffer.

[7] = target: T7, GST-p38αT106M mutant (Homo sapiens, UniProt Q16539, T106M); experiment: Comparative chemical array screening, binding to GST-p38αT106M; conditions: Table S2
T7 construct: made in house; host or cells: bacteria (stated for the kinase assay)
Description: Photo-cross-linked chemical arrays were prepared by the previously described method[33] utilizing a photoaffinity proline linker that had both PEG and a polyproline helix as spacers.
The slides were then washed with TBS-T buffer (10 mM Tris/HCl, 150 mM NaCl, 0.05% Tween-20, pH 8.0) three times for 5 min each and centrifuged (480 × g, 1 min) to dry. […] After washing with TBS-T buffer, the slides were incubated with an anti-GST antibody (30 μg/mL) in binding buffer at 30 °C for 1 h. This incubation was followed by another wash step and incubation with a secondary antibody (goat anti-rabbit IgG, Cy5 conjugate, 50 μg/mL in binding buffer) at 30 °C for 1 h. After the final wash step and spin dry, the slides were scanned at 635 nm on a GenePix 4300A microarray scanner (Molecular Devices). The fluorescence intensity (I) of each compound spot was quantified with GenePix 5.0 software with local background correction. Then, the difference (ΔΙ) of the fluorescence intensities between the GST-p38αT106M and GST-p38α-treated arrays was calculated by subtracting Ip38α from IT106M (ΔI = IT106M - Ip38α) for each spot. The mean and standard deviation (SD) of ΔI for all spots on the array were also calculated. The ΔΙ score of each spot was calculated using the following formula; ΔΙ score = (ΔI - mean)/SD. The compounds with a ΔΙ score larger than 2 were determined to be hit compounds for GST-p38αT106M. […]

[8] = target: T8, GST-p38α (Homo sapiens, UniProt Q16539); experiment: In vitro kinase assay, GST-ATF2 substrate, [γ-32P]ATP; type: biochemical; conditions: Fig. 2C, SU-002 0.06-7.6 μM
T8 construct: made in house
Description: as §3

[9] = tested on: MUC5AC; design: method as in PMID 23187130; conditions: airway epithelial cells; BIRB796 at high concentration; cited from earlier work

T5 sequence (Q16539 whole entry T106M): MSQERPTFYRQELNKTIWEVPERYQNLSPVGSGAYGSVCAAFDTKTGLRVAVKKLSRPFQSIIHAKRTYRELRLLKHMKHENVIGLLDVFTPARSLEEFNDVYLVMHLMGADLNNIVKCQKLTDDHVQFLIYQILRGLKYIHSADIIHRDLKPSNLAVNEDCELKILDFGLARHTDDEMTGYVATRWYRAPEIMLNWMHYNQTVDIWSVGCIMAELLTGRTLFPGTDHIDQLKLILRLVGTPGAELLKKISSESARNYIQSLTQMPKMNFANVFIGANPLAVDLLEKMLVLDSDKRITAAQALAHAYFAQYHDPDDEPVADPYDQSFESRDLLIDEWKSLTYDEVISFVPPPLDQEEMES
T2 sequence (Q16539 whole entry T106M): as above
T7 sequence (Q16539 whole entry T106M): as above
T4 sequence (Q16539 whole entry): as the sequence (Q16539 whole entry T106M) above, with M106T counted along it
T8 sequence (Q16539 whole entry): as the sequence (Q16539 whole entry T106M) above, with M106T counted along it

Row | Compound | %kinase activity relative to control, p38γ ([1]; 1 µM) | %kinase activity relative to control, p38γ ([1]; 10 µM) | %kinase activity relative to control, p38αT106M ([2]; 1 µM) | %kinase activity relative to control, p38αT106M ([2]; 10 µM) | %kinase activity relative to control, p38δ ([3]; 1 µM) | %kinase activity relative to control, p38δ ([3]; 10 µM) | %kinase activity relative to control, p38α ([4]; 1 µM) | %kinase activity relative to control, p38α ([4]; 10 µM) | inhibition of p38αT106M kinase activity ([5]; 1 μM, Fig. 3B,C) | inhibition of endogenous p38γ phosphorylation [6] | IT106M score ([7]; I score = (I − Imean)/ISD, duplicate spots) | ΔI score ([7]; ΔI = IT106M – Ip38α, ΔI score = (ΔI − ΔImean)/ΔISD, hit if larger than 2) | inhibition of p38αT106M kinase activity ([5]; Fig. 2C,D, SU-002 0.012-7.6 μM) | inhibition of p38α kinase activity [8] | inhibition of production of MUC5AC mRNA and protein [9]
1 | Nc1nnc(Sc2ccnc3cc(Cl)ccc23)s1 [SU-001] | 103 ± 8% | 95 ± 2% | 99 ± 0% | 91 ± 6% | 94 ± 2% | 92 ± 1% | 91 ± 13% | 72 ± 2% | did not inhibit |  |  |  |  |  | 
2 | CCCCCC(=O)Nc1nnc(Sc2ccnc3cc(Cl)ccc23)s1 [SU-004] | 111 ± 4% | 104 ± 8% | 99 ± 0% | 94 ± 3% | 100 ± 4% | 97 ± 3% | 91 ± 2% | 86 ± 3% |  | no or weak inhibitory activity |  |  |  |  | 
3 | CC(=O)Nc1nnc(Sc2ccnc3cc(Cl)ccc23)s1 [SU-003] | 112 ± 3% | 104 ± 6% | 96 ± 4% | 94 ± 1% | 99 ± 2% | 81 ± 1% | 92 ± 8% | 94 ± 6% |  | no or weak inhibitory activity |  |  |  |  | 
4 | CCCCCCCC(=O)Nc1nnc(Sc2ccnc3cc(Cl)ccc23)s1 [SU-002] | 92 ± 5% | 88 ± 2% | 83 ± 7% | 72 ± 2% | 90 ± 0% | 96 ± 0% | 88 ± 6% | 94 ± 5% | clearly impaired | similarly potent inhibitory activities | 4.80 and 3.66 | 6.30 and 4.89 | inhibited the kinase activity of p38αT106M in a dose-dependent manner | this inhibition was not seen | 
5 | Cc1ccc(-n2nc(C(C)(C)C)cc2NC(=O)Nc2ccc(OCCN3CCOCC3)c3ccccc23)cc1 [BIRB796] |  |  |  |  |  |  |  |  |  |  |  |  |  |  | markedly inhibited
